Experiments:
Human LBAT = biological target: T1, Human LBAT (Homo sapiens, UniProt Q14973); test: LBAT (h/m) assay, human LBAT-overexpressing cells, 3H-taurocholic acid uptake; type: cell-based; settings: 0.3 μM 3H-taurocholic acid and 7.5 μM cold taurocholic acid, 20 minutes, read-out: hLBAT IC50
T1 construct: expressed in transfected cells; Geneticin-selected
T1 sequence (Q14973 1-349): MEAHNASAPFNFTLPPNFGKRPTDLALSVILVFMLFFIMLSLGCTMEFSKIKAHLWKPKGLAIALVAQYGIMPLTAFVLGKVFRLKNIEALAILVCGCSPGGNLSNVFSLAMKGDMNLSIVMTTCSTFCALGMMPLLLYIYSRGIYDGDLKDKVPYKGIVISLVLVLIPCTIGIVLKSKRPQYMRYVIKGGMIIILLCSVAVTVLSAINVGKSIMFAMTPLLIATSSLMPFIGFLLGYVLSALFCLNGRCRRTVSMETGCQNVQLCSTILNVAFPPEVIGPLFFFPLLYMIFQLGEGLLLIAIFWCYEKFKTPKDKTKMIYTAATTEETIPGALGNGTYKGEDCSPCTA
Method: LBAT (h/m) Assay Protocol
20,000 cells (Human or Mouse LBAT-overexpressing cells) were seeded in 96-wells plate (Corning CLS3809) in 100 μL MEM-alpha medium (Gibco 12571-063) supplemented with 10% FBS (Gibco 10438026) containing Geneticin (Gibco 10131-027) (1 mg/mL) and incubated at 37° C. in 5% CO2 for 24 hours. After incubation, media was decanted from the wells and cells were washed two times with 300 μL of basal MEM-alpha medium (FBS-free). After decanting basal MEM-alpha medium each time, plates were tapped against paper towel to ensure maximum removal of residual media.
For human LBAT, incubation mix was prepared by adding test inhibitor dilutions (3-fold serial dilution in DMSO (Sigma D2650), 10 points) in MEM-alpha (without FBS) containing 0.3 μM 3H-taurocholic acid (ARC ART-1368) and 7.5 μM cold taurocholic acid (Sigma T4009) (maintaining 0.2% final DMSO concentration). For mouse LBAT, incubation mix was prepared by adding test inhibitor dilutions (3-fold serial dilution in DMSO, 10 points) in MEM-alpha (without FBS) containing 0.3 μM 3H-taurocholic acid and 25 μM cold taurocholic acid maintaining 0.2% final DMSO concentration). 50 μL of incubation mix containing test inhibitors was then added to the wells (in duplicate) and the plates were incubated for 20 minutes in a CO2 incubator at 37° C. After incubation, the reaction was stopped by keeping the plates on ice water mix for 2-3 minutes and then the incubation mix was aspirated completely from the wells. The wells were washed two times with 250 μL of chilled unlabelled 1 mM taurocholic acid dissolved in HEPES (Gibco 15630080)-buffered (10 mM) HBSS (Gibco 14175079) (pH 7.4). The plates were tapped against a paper towel after every wash to ensure maximum removal of blocking buffer. 100 μL of MicroScint-20 (PerkinElmer 6013621) was added to the wells and kept overnight at room temperature before reading the plates in TopCount NXT™ Microplate Scintillation and Luminescence Counter from PerkinElmer under 3H Test protocol (set at 120 seconds reading time per well, with normal plate orientation).
(§1) Preparation of Test Compound Dilutions
(§2) All test compounds were provided in powder form at room temperature. 10 mM DMSO stocks of the test compounds were prepared, aliquoted and stored at −20° C. From the 10 mM DMSO stock of the compounds, a 3-fold serial dilution in DMSO was prepared to get a total of 10 dilutions of the test compounds. 0.5 μL of this dilution in DMSO was added to 250 μL of FBS-free basal media containing 3H-taurocholic acid and cold taurocholic acid to prepare the incubation mixture.

Human IBAT = biological target: T2, Human IBAT (Homo sapiens, UniProt Q12908); test: IBAT (h/m) assay, human IBAT-overexpressing cells, 3H-taurocholic acid uptake; type: cell-based; settings: 0.25 μM 3H-taurocholic acid and 5 μM cold taurocholic acid, 20 minutes, read-out: hIBAT IC50
T2 construct: expressed in transfected cells; Puromycin-selected
T2 sequence (Q12908 1-348): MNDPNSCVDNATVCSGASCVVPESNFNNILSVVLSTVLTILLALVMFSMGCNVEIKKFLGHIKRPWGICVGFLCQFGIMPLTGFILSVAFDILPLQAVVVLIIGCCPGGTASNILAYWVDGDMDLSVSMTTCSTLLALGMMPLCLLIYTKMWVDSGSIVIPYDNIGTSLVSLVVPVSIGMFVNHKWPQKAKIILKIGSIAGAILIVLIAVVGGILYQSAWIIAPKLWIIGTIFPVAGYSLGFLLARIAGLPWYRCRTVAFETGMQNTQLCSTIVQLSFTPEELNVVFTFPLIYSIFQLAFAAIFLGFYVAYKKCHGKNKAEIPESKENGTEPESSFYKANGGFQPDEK
Method: IBAT (h/m) Assay Protocol
10,000 cells (Human or Mouse IBAT-overexpressing cells) were seeded in 96-wells plate (Corning CLS3809) in 200 μL MEM-alpha medium (Gibco 12571-063) supplemented with 10% FBS (Gibco 10438026) containing Puromycin (Gibco A1113803) (10 μg/mL) and incubated at 37° C. in 5% CO2 for 48 hours. After incubation, media was decanted from the wells and cells were washed two times with 300 μL of basal MEM-alpha medium (FBS-free). After decanting basal MEM-alpha medium each time, plates were tapped against paper towel to ensure maximum removal of residual media. Test inhibitor dilutions (highest test concentration being 10 μM, 3-fold serial dilution, 10 points) prepared in DMSO (Sigma D2650) were added in incubation mix (maintaining 0.2% final DMSO concentration) containing 0.25 μM 3H-taurocholic acid (ARC ART-1368) and 5 μM of cold taurocholic acid (Sigma T4009). 50 μL of incubation mix containing test inhibitors was then added to the wells (in duplicate) and the plates were incubated for 20 minutes in a CO2 incubator at 37° C. After incubation, the reaction was stopped by keeping the plates on ice water mix for 2-3 minutes and then the incubation mix was aspirated completely from the wells. The wells were washed two times with 250 μL of chilled unlabelled 1 mM taurocholic acid dissolved in HEPES (Gibco 15630080)-buffered (10 mM) HBSS (Gibco 14175079) (pH 7.4). The plates were tapped against a paper towel after every wash to ensure maximum removal of blocking buffer.
100 μL of MicroScint-20 (PerkinElmer 6013621) was added to the wells and kept overnight at room temperature before reading the plates in TopCount NXT™ Microplate Scintillation and Luminescence Counter from PerkinElmer under 3H Test protocol (set at 120 seconds reading time per well).
as §1, §2

Structure (SMILES) | IC50 (Human LBAT) [nM] | IC50 (Human IBAT) [nM]
CCCCC1(CCCC)CN(c2ccccc2)c2cc(OC)c(OCCC(=O)O)cc2S(=O)(=O)C1 [Example 45, 3-((3,3-Dibutyl-7-methoxy-1,1-dioxido-5-phenyl-2,3,4,5-tetrahydro-1,5-benzothiazepin-8-yl)oxy)propanoic acid] | > 6670 | 11
CCCCC1(C)CN(c2ccccc2)c2cc(SC)c(OCC(O)C(=O)O)cc2S(=O)(=O)C1 (stereo not drawn) [Example 31, 3-((3-butyl-3-methyl-7-(methylthio)-1,1-dioxido-5-phenyl-2,3,4,5-tetrahydro-1,5-benzothiazepin-8-yl)oxy)-2-hydroxypropanoic acid] | 359 | 10
CCCCC1(C)CN(c2ccccc2)c2cc(SC)c(OCC(C)(O)C(=O)O)cc2S(=O)(=O)C1 (single isomer, unassigned) [33, diastereomer 2] | 1410 | 45
CCCCC1(CCCC)CN(c2ccccc2)c2cc(Cl)c(OCCC(=O)O)cc2S(=O)(=O)C1 [Example 8, 3-((3,3-Dibutyl-7-chloro-1,1-dioxido-5-phenyl-2,3,4,5-tetrahydro-1,5-benzothiazepin-8-yl)oxy)propanoic acid] | 376 | 74
CCCCC1(CC)CN(c2ccc(F)cc2)c2cc(SC)c(OCCC(=O)O)cc2S(=O)(=O)C1 (racemic) [Example 37, 3-((3-butyl-3-ethyl-5-(4-fluorophenyl)-7-(methylthio)-1,1-dioxido-2,3,4,5-tetrahydro-1,5-benzothiazepin-8-yl)oxy)propanoic acid] | 297 | 3
CCCCC1(CCCC)CN(c2ccc(F)cc2)c2cc(SC)c(OCCC(=O)O)cc2S(=O)(=O)C1 [Example 26, 3-((3,3-dibutyl-5-(4-fluorophenyl)-7-(methylthio)-1,1-dioxido-2,3,4,5-tetrahydro-1,5-benzothiazepin-8-yl)oxy)propanoic acid] | 1540 | 10
CCCCC1(CC)CN(c2ccccc2)c2cc(SC)c(OCC(O)C(=O)O)cc2S(=O)(=O)C1 (single isomer, unassigned) [40, diastereomer 2] | 513 | 24
CCCCC1(CC)CN(c2ccc(F)cc2)c2cc(SC)c(OCC(O)C(=O)O)cc2S(=O)(=O)C1 (single isomer, unassigned) [42, diastereomer 3] | 892 | 0.5
CCCCC1(C)CN(c2ccccc2)c2cc(SC)c(OC[C@H](O)C(=O)O)cc2S(=O)(=O)C1 (single isomer, unassigned) [Example 32, 3-((3-butyl-3-methyl-7-(methylthio)-1,1-dioxido-5-phenyl-2,3,4,5-tetrahydro-1,5-benzothiazepin-8-yl)oxy)-2-hydroxypropanoic acid] | 2260 | 8
CCCCC1(C)CN(c2ccccc2)c2cc(N(C)C)c(OCCC(=O)O)cc2S(=O)(=O)C1 (single isomer, unassigned) [29, enantiomer 2] | 3310 | 57
CCCCC1(CCCC)CN(c2ccccc2)c2cc(SC)c(OCC(C)(O)C(=O)O)cc2S(=O)(=O)C1 (single isomer, unassigned) [Example 21, 3-((3,3-dibutyl-7-(methylthio)-1,1-dioxido-5-phenyl-2,3,4,5-tetrahydro-1,5-benzothiazepin-8-yl)oxy)-2-hydroxy-2-methylpropanoic acid] | 608 | 19
CCCCC1(CC)CN(c2ccc(F)cc2)c2cc(SC)c(OCC(O)C(=O)O)cc2S(=O)(=O)C1 (stereo not drawn) [Example 41, 3-((3-Butyl-3-ethyl-5-(4-fluorophenyl)-7-(methylthio)-1,1-dioxido-2,3,4,5-tetrahydro-1,5-benzothiazepin-8-yl)oxy)-2-hydroxypropanoic acid] | 495 | 3
CCCCC1(CCCC)CN(c2ccc(F)c(F)c2)c2cc(SC)c(OCCC(=O)O)cc2S(=O)(=O)C1 [Example 25, 3-((3,3-dibutyl-5-(3,4-difluorophenyl)-7-(methylthio)-1,1-dioxido-2,3,4,5-tetrahydro-1,5-benzothiazepin-8-yl)oxy)propanoic acid] | 922 | 18

Second part, the compound after the results:

IC50 (Human LBAT) [nM] | IC50 (Human IBAT) [nM] | Structure (SMILES)
669 | 4 | CCCCC1(CC)CN(c2ccccc2)c2cc(SC)c(OCCC(=O)O)cc2S(=O)(=O)C1 (racemic) [Example 12, 3-((3-Butyl-3-ethyl-7-(methylthio)-1,1-dioxido-5-phenyl-2,3,4,5-tetrahydro-1,5-benzothiazepin-8-yl)oxy)propanoic acid]
764 | 58 | CCCCC1(CC)CN(c2ccccc2)c2cc(SC)c(OCCC(=O)O)cc2S(=O)(=O)C1 (single isomer, unassigned) [Example 14, 3-((3-butyl-3-ethyl-7-(methylthio)-1,1-dioxido-5-phenyl-2,3,4,5-tetrahydro-1,5-benzothiazepin-8-yl)oxy)propanoic acid]
791 | 35 | CCCCC1(CC)CN(c2ccccc2)c2cc(Cl)c(OCCC(=O)O)cc2S(=O)(=O)C1 (racemic) [Example 5, 3-((3-Butyl-7-chloro-3-ethyl-1,1-dioxido-5-phenyl-2,3,4,5-tetrahydro-1,5-benzothiazepin-8-yl)oxy)propanoic acid]
969 | 418 | CCCCC1(CC)CN(c2ccccc2)c2cc(Cl)c(OCCC(=O)O)cc2S(=O)(=O)C1 (single isomer, unassigned) [Example 7, 3-((3-butyl-7-chloro-3-ethyl-1,1-dioxido-5-phenyl-2,3,4,5-tetrahydro-1,5-benzothiazepin-8-yl)oxy)propanoic acid]
> 20000 | 44 | CCCCC1(CC)CN(c2ccccc2)c2cc(OC)c(OCCC(=O)O)cc2S(=O)(=O)C1 (racemic) [Example 43, 3-((3-butyl-3-ethyl-7-methoxy-1,1-dioxido-5-phenyl-2,3,4,5-tetrahydro-1,5-benzothiazepin-8-yl)oxy)propanoic acid]
